Measured values reported in patent publication US9834549B2, “3,3-disubstituted-(8-aza-bicyclo[3.2.1]OCT-8-yl)-[5-(1H-pyrazol-4-yl)-thiophen-3-yl]-methanones as inhibitors of 11 (β)-HSD1” (The University Of Edinburgh, priority 2010, dated 2017).
Where two headings read alike, the source gives them in different places.

Legend:
[1] = target: T1, human 11β-HSD1 (Homo sapiens, UniProt P28845); assay: Cellular in vitro 11β-HSD1 enzyme inhibition assay (SPA, HEK293/11β-HSD1 cells); assay type: cell-based; settings: HEK293, potency groups, read-out: IC50 for 11β-HSD1 (HEK293)
T1 construct: stably transfected with a construct containing the full-length gene coding for the human 11β-HSD1 enzyme; expressed in transfected cells; host or cells: HEK293 (stably transfected, HEK293/11β-HSD1)
Protocol: Compounds were assessed by a Scintillation Proximity Assay (SPA) performed according to the following protocol:
HEK293 cells were stably transfected with a construct containing the full-length gene coding for the human 11β-HSD1 enzyme to create HEK293/11β-HSD1 cells. Cells were routinely cultured in DMEM containing 10% calf foetal serum, 1% glutamine, and 1% penicillin and streptomycin. Prior to assay, cells were plated at 2×10^4 cells/well in 96-well poly-D-Lys coated flat-bottomed microplates and incubated in 5% CO2, 95% O2 at 37° C. for 24 hours. The media in each well was removed immediately before assay.
Compounds to be tested were dissolved in DMSO at 10 mM and serially diluted into water containing 10% DMSO. Diluted compounds at a volume of 10 μL were added to wells of a 96-well V-bottomed microplate. A solution of DMEM, 1% glutamine, 1% penicillin and streptomycin, and 22 nM tritiated cortisone was prepared and 90 μL added to each well of the assay plate. This solution (100 μL/well) was transferred to the plate containing the cells. The plate was then incubated in 5% CO2, 95% O2 at 37° C. for 2 hours.
Following this incubation, 50 μL of the assay solution was transferred to each well of a 96-well scintillation microplate. A mixture consisting of anti-mouse YSi SPA beads, pre-mixed with anti-cortisol antibody in assay buffer (50 mM Tris.HCl, pH 7.0; 300 mM NaCl; 1 mM EDTA, 5% glycerol) was prepared and 50 μL added to each well of the scintillation microplate. An adhesive strip was applied to the microplate and the plate gently shaken for at least 2 hours at room temperature, and then spun briefly on a low speed centrifuge. The plate was read on a scintillation counter suitable for 96-well microplates. For the calculation of percentage inhibition, a series of wells were added to the plate that represented the assay maximum and the assay minimum: one set that contained substrate without cells (minimum) and another set that contained substrate and cells without any compound (maximum).
The calculation of median inhibitory concentration (IC50) values for the compounds was performed using GraphPad Prism® software. Dose-response curves for each compound were plotted as fractional inhibition and data fitted to the four parameter logistic equation.

[2] = In vitro human liver microsomal stability assay; assay type: in vitro ADME; settings: human liver microsomes
Protocol: To predict in vivo metabolism of compounds, the stability of compounds incubated with human liver microsomes in vitro was determined. Human liver microsome preparations were stored at −80° C. and thawed on ice prior to use. The thawed microsomes were diluted to a concentration of 2 mg/mL in 50 mM sodium phosphate, pH 7.4. Reference and test compounds were prepared as 10 mM stocks in 100% DMSO and diluted to 1 mM in acetonitrile before use. Each compound was tested in triplicate as follows:
4 μL of test or reference compound was added to a well of a 24-well microplate and 0.5 mL of 4 mM NADPH added. The plate was then transferred to a shaker for 10 minutes at room temperature. 30 μL of the compound/NADPH solution was transferred to the well of a 96-well microplate and incubated at 37° C. for 5 minutes. 30 μL of human liver microsomes (pre-incubated at 37° C. for 5 minutes) was added to the well containing the compound/NADPH solution and the plate incubated for the selected period of time (typically 0 or 30 minutes). The reaction was stopped by adding 60 μL of ice cold […] trichloroacetic acid. The plate was centrifuged at 1000 rpm for 5 minutes at room temperature and the supernatant transferred to the well of a new 96-well V-bottomed microplate for mass spectrometric analysis.
Samples were analyzed by TSQ Quantum Discovery Tandem Mass Spectrometer and Surveyor Liquid Chromatogram (Thermo, Hemel-Hempstead, UK). 10 μL of each sample was injected in a mobile phase consisting of 60%:40% methanol:5 mM ammonium acetate at a flow rate of 0.5 mL/minute. The column used was a BDS hypersil, C18, 50×2.1 mm with a 5 μm particle size.
Each compound was tuned with a spray voltage of 3000 V and a capillary temperature of 300° C. and values for tube lens, CID and product ions were determined.
The peak area for each compound was measured in triplicate for the 0 and 30 minute samples and the average of each was reported. The percentage remaining after 30 minutes was calculated as the average peak area of the sample after 30 minutes divided by the average peak area at 0 minutes. The RSD was 10% or lower for each compound.

T1 sequence (P28845 whole entry): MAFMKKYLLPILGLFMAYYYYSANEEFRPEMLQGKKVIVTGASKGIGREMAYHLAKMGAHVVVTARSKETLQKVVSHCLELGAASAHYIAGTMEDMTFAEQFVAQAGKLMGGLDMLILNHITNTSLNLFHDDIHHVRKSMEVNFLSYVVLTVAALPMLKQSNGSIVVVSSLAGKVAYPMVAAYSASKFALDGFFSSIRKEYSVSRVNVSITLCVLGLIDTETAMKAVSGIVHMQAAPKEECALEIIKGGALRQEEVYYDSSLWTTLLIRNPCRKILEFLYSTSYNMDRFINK

Row | SMILES | IC50 [1] | % Parent Remaining at 30 min [2] | IC50 ([1]; μM)
1 | N#CC1(c2ncccn2)CC2CCC(C1)N2C(=O)c1csc(-c2cn[nH]c2)c1 (stereo not shown) [XX-26] | ≤ 0.1 µM | – | –
2 | O=C(c1csc(-c2cn[nH]c2)c1)N1C2CCC1CC(O)(c1cccnn1)C2 (stereo not shown) [XX-27] | ≤ 0.1 µM | +++ (61-100% +++) | –
3 | O=C(c1csc(-c2cn[nH]c2)c1)N1C2CCC1CC(O)(c1cccnn1)C2 (stereo not shown) [XX-28] | – | – | 0.5 to 10 µM
4 | Cc1csc(C2(O)CC3CCC(C2)N3C(=O)c2csc(-c3cn[nH]c3)c2)n1 (stereo not shown) [XX-30] | 0.1 to 0.5 µM | – | –
5 | Cc1cnc(C2(O)CC3CCC(C2)N3C(=O)c2csc(-c3cn[nH]c3)c2)s1 (stereo not shown) [XX-32] | ≤ 0.1 µM | – | –
6 | N#CC1(c2nccs2)CC2CCC(C1)N2C(=O)c1csc(-c2cn[nH]c2)c1 (stereo not shown) [XX-35] | ≤ 0.1 µM | ++ (31-60% ++) | –
7 | O=C(c1csc(-c2cn[nH]c2)c1)N1C2CCC1CC(O)(c1ncco1)C2 (stereo not shown) [XX-37] | ≤ 0.1 µM | +++ (61-100% +++) | –
8 | Cn1ccnc1C1(O)CC2CCC(C1)N2C(=O)c1csc(-c2cn[nH]c2)c1 (stereo not shown) [XX-38] | – | – | 0.5 to 10 µM
9 | Cn1nccc1C1(O)CC2CCC(C1)N2C(=O)c1csc(-c2cn[nH]c2)c1 (stereo not shown) [XX-39] | 0.1 to 0.5 µM | – | –
10 | O=C(c1csc(-c2cn[nH]c2)c1)N1C2CCC1CC(O)(c1nc3ccccc3s1)C2 (stereo not shown) [XX-40] | 0.1 to 0.5 µM | – | –
11 | O=C(c1csc(-c2cn[nH]c2)c1)N1C2CCC1CC(F)(c1ncccc1F)C2 (stereo not shown) [XX-41] | ≤ 0.1 µM | – | –
12 | O=C(c1csc(-c2cn[nH]c2)c1)N1CCC(O)(c2ccccn2)CC1 [YY-01] | – | – | 0.5 to 10 µM
13 | O=C(c1csc(-c2cn[nH]c2)c1)N1CCC(O)(c2ncc(Cl)cc2Cl)CC1 [YY-03] | 0.1 to 0.5 µM | – | –
14 | O=C(c1csc(-c2cn[nH]c2)c1)N1CCC(O)(c2ncccc2C(F)(F)F)CC1 [YY-04] | 0.1 to 0.5 µM | – | –
15 | CCc1ccc(Cl)c(C2(O)CCN(C(=O)c3csc(-c4cn[nH]c4)c3)CC2)n1 [YY-05] | 0.1 to 0.5 µM | – | –
16 | O=C(c1csc(-c2cn[nH]c2)c1)N1CCC(O)(c2ccncc2F)CC1 [YY-07] | 0.1 to 0.5 µM | +++ (61-100% +++) | –
17 | O=C(c1csc(-c2cn[nH]c2)c1)N1CCC(O)(c2ncccc2F)CC1 [YY-08] | – | – | 0.5 to 10 µM
18 | O=C(c1csc(-c2cn[nH]c2)c1)N1CCC(F)(c2ncccc2Cl)CC1 [YY-09] | 0.1 to 0.5 µM | +++ (61-100% +++) | –
19 | O=C(c1csc(-c2cn[nH]c2)c1)N1CCC(O)(c2ncccn2)CC1 [YY-10] | – | – | 0.5 to 10 µM
20 | O=C(c1csc(-c2cn[nH]c2)c1)N1CCC(F)(c2ncccn2)CC1 [YY-11] | – | – | 0.5 to 10 µM
